In US8865698B2, “Method of treatment using substituted pyrazolo[1,5-a]pyrimidine compounds” (Array BioPharma Inc., priority 2008, dated 2014):

Target: histidine-tagged recombinant human TrkA, cytoplasmic domain (Homo sapiens (Human), UniProt P04629)
Test: TrkA ELISA Assay
Format: biochemical
Details: 2.5 nM TrkA, 500 μM ATP, 25 minutes; read-out: TrkA Elisa Enzyme IC50
Description: An enzyme-linked immunosorbant assay (ELISA) was used to assess TrkA kinase activity in the presence of inhibitors. Immulon 4HBX 384-well microtiter plates (Thermo part #8755) were coated with a 0.025 mg/mL solution of poly (Glu, Ala, Tyr; 6:3:1; Sigma P3899). Various concentrations of test compound, 2.5 nM TrkA (Invitrogen Corp., histidine-tagged recombinant human TrkA, cytoplasmic domain), and 500 μM ATP were incubated for 25 minutes at ambient temperature in the coated plates while shaking. The assay buffer consisted of 25 mM MOPS pH 7.5, 0.005% (v/v) Triton X-100 and 5 mM MgCl2. The reaction mixture was removed from the plate by washing with PBS containing 0.1% (v/v) Tween 20. The phosphorylated reaction product was detected using 0.2 μg/mL of a phosphotyrosine specific monoclonal antibody (clone PY20) conjugated to horseradish peroxidase in conjunction with the TMB Peroxidase Substrate System (KPL). After the addition of 1M phosphoric acid, the chromogenic substrate color intensity was quantitated via absorbance at 450 nm. IC50 values were calculated using either a 4 or 5-parameter logistic curve fit.

Chain of histidine-tagged recombinant human TrkA, cytoplasmic domain (P04629 440-796): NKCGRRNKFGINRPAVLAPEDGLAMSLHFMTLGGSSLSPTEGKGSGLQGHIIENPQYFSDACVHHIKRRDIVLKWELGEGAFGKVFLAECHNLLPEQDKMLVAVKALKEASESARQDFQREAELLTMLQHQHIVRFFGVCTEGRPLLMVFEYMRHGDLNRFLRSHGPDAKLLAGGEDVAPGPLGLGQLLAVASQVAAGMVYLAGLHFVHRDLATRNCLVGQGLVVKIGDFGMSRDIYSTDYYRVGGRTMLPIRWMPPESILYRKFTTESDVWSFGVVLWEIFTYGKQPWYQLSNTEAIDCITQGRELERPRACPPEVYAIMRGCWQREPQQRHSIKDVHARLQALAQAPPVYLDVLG

Compound | IC50
Cc1ccc(C(=O)Nc2cnn3ccc(N4CCC[C@@H]4c4cccc(F)c4)nc23)cn1 [Example 78, (R)—N-(5-(2-(3-fluorophenyl)pyrrolidin-1-yl)pyrazolo[1,5-a]pyrimidin-3-yl)-6-methylnicotinamide] | 47 nM
CC1(O)CN(C(=O)Nc2cnn3ccc(N4CCC[C@@H]4c4cc(F)ccc4Cl)nc23)C1 [Example 22, (R)—N-(5-(2-(2-chloro-5-fluorophenyl)pyrrolidin-1-yl)pyrazolo[1,5-a]pyrimidin-3-yl)-3-hydroxy-3-methylazetidine-1-carboxamide] | 11.5 nM
O=C(Nc1cnn2ccc(N3CCC[C@@H]3c3cc(F)ccc3F)nc12)[C@H]1CC[C@H](O)C1 [Example 95, (1S,3S)—N-(5-((R)-2-(2,5-difluorophenyl)pyrrolidin-1-yl)pyrazolo[1,5-a]pyrimidin-3-yl)-3-hydroxycyclopentanecarboxamide] | 42.5 nM
O=C(Nc1cnn2ccc(N3CCC[C@@H]3c3cc(F)ccc3C(F)F)nc12)N1CC[C@@H](O)C1 [Example 36, (R)—N-(5-((R)-2-(2-(difluoromethyl)-5-fluorophenyl)pyrrolidin-1-yl)pyrazolo[1,5-a]pyrimidin-3-yl)-3-hydroxypyrrolidine-1-carboxamide] | 18 nM
COC(=O)C(=O)Nc1cnn2ccc(N3CCC[C@@H]3c3cc(F)ccc3F)nc12 [Example 104, (R)-methyl 2-(5-(2-(2,5-difluorophenyl)pyrrolidin-1-yl)pyrazolo[1,5-a]pyrimidin-3-ylamino)-2-oxoacetate] | 7.65 nM
Cc1cccc(C(=O)Nc2cnn3ccc(N4CCC[C@@H]4c4cc(F)ccc4F)nc23)n1 [Example 60, (R)—N-(5-(2-(2,5-difluorophenyl)pyrrolidin-1-yl)pyrazolo[1,5-a]pyrimidin-3-yl)-6-methylpicolinamide] | 4.2 nM
CCN1CCN(C(=O)Nc2cnn3ccc(N4CCC[C@@H]4c4cc(F)ccc4F)nc23)CC1 [Example 27, (R)—N-(5-(2-(2,5-difluorophenyl)pyrrolidin-1-yl)pyrazolo[1,5-a]pyrimidin-3-yl)-4-ethylpiperazine-1-carboxamide] | 107 nM
CNC(=O)C(=O)Nc1cnn2ccc(N3CCC[C@@H]3c3cc(F)ccc3F)nc12 [Example 98, (R)—N^1-(5-(2-(2,5-difluorophenyl)pyrrolidin-1-yl)pyrazolo[1,5-a]pyrimidin-3-yl)-N^2-methyloxalamide] | 7.65 nM
O=C(Nc1cnn2ccc(N3CCC[C@@H]3c3cccc(F)c3)nc12)c1cccnc1 [Example 76, (R)—N-(5-(2-(3-fluorophenyl)pyrrolidin-1-yl)pyrazolo[1,5-a]pyrimidin-3-yl)nicotinamide] | 53.3 nM
O=C(Nc1cnn2ccc(N3CCC[C@@H]3c3cc(F)ccc3C(F)(F)F)nc12)N1CCC[C@@H](O)C1 [Example 86, (R)—N-(5-((R)-2-(5-fluoro-2-(trifluoromethyl)phenyl)pyrrolidin-1-yl)pyrazolo[1,5-a]pyrimidin-3-yl)-3-hydroxypiperidine-1-carboxamide] | 14 nM
O=C(Nc1cnn2ccc(N3CCC[C@@H]3c3cc(F)ccc3F)nc12)c1ccccn1 [Example 59, (R)—N-(5-(2-(2,5-difluorophenyl)pyrrolidin-1-yl)pyrazolo[1,5-a]pyrimidin-3-yl)picolinamide] | 1.7 nM
COc1cccc(C(=O)Nc2cnn3ccc(N4CCC[C@@H]4c4cccc(F)c4)nc23)n1 [Example 75, (R)—N-(5-(2-(3-fluorophenyl)pyrrolidin-1-yl)pyrazolo[1,5-a]pyrimidin-3-yl)-6-methoxypicolinamide] | 7.4 nM
O=C(Nc1cnn2ccc(N3CCC[C@@H]3c3cc(F)ccc3F)nc12)C1(C(F)(F)F)CC1 [Example 51, (R)—N-(5-(2-(2,5-difluorophenyl)pyrrolidin-1-yl)pyrazolo[1,5-a]pyrimidin-3-yl)-1-(trifluoromethyl)cyclopropanecarboxamide] | 5.2 nM
O=C(Nc1cnn2ccc(N3CCC[C@@H]3c3cc(F)ccc3F)nc12)c1cccc(Cl)n1 [Example 71, (R)-6-chloro-N-(5-(2-(2,5-difluorophenyl)pyrrolidin-1-yl)pyrazolo[1,5-a]pyrimidin-3-yl)picolinamide] | 3.5 nM
CC(C)(O)C(=O)Nc1cnn2ccc(N3CCC[C@@H]3c3cc(F)ccc3F)nc12 [Example 50, (R)—N-(5-(2-(2,5-difluorophenyl)pyrrolidin-1-yl)pyrazolo[1,5-a]pyrimidin-3-yl)-2-hydroxy-2-methylpropanamide] | 12.4 nM
COC(=O)C1(C(=O)Nc2cnn3ccc(N4CCC[C@@H]4c4cc(F)ccc4F)nc23)CC1 [Example 33, (R)-methyl 1-(5-(2-(2,5-difluorophenyl)pyrrolidin-1-yl)pyrazolo[1,5-a]pyrimidin-3-ylcarbamoyl)cyclopropanecarboxylate] | 4.7 nM

Compound | IC50
O=C(Nc1ccc(Cl)cc1)Nc1cnn2ccc(N3CCC[C@@H]3c3cc(F)ccc3F)nc12 [Example 19, (R)-1-(4-chlorophenyl)-3-(5-(2-(2,5-difluorophenyl)pyrrolidin-1-yl)pyrazolo[1,5-a]pyrimidin-3-yl)urea] | 10.1 nM
O=C(Nc1cnn2ccc(N3CCC[C@@H]3c3cncc(F)c3)nc12)N1CC[C@@H](O)C1 [Example 89, (R)—N-(5-((R)-2-(5-fluoropyridin-3-yl)pyrrolidin-1-yl)pyrazolo[1,5-a]pyrimidin-3-yl)-3-hydroxypyrrolidine-1-carboxamide] | 896 nM
CC(C)(C)OC(=O)N1CC(C(=O)Nc2cnn3ccc(N4CCC[C@@H]4c4cc(F)ccc4Cl)nc23)C1 [Example 46, (R)-tert-butyl 3-(5-(2-(2-chloro-5-fluorophenyl)pyrrolidin-1-yl)pyrazolo[1,5-a]pyrimidin-3-ylcarbamoyl)azetidine-1-carboxylate] | 37.3 nM
CC(C)C(=O)Nc1cnn2ccc(N3CCC[C@@H]3c3cc(F)ccc3F)nc12 [Example 5, (R)—N-(5-(2-(2,5-difluorophenyl)pyrrolidin-1-yl)pyrazolo[1,5-a]pyrimidin-3-yl)isobutyramide] | 12.1 nM
C[C@]1(C(=O)Nc2cnn3ccc(N4CCC[C@@H]4c4cc(F)ccc4F)nc23)CCCN1 [Example 53, (R)—N-(5-((R)-2-(2,5-difluorophenyl)pyrrolidin-1-yl)pyrazolo[1,5-a]pyrimidin-3-yl)-2-methylpyrrolidine-2-carboxamide] | 31 nM
O=C(Nc1cnn2ccc(N3CCC[C@@H]3c3cc(F)ccc3C(F)F)nc12)N1CCC[C@H](O)C1 [Example 40, (S)—N-(5-((R)-2-(2-(difluoromethyl)-5-fluorophenyl)pyrrolidin-1-yl)pyrazolo[1,5-a]pyrimidin-3-yl)-3-hydroxypiperidine-1-carboxamide] | 30.8 nM
COC1CN(C(=O)Nc2cnn3ccc(N4CCC[C@@H]4c4cc(F)ccc4Cl)nc23)C1 [Example 21, (R)—N-(5-(2-(2-chloro-5-fluorophenyl)pyrrolidin-1-yl)pyrazolo[1,5-a]pyrimidin-3-yl)-3-methoxyazetidine-1-carboxamide] | 27.9 nM
Cc1cnc(C(=O)Nc2cnn3ccc(N4CCC[C@@H]4c4cccc(F)c4)nc23)cn1 [Example 82, (R)—N-(5-(2-(3-fluorophenyl)pyrrolidin-1-yl)pyrazolo[1,5-a]pyrimidin-3-yl)-5-methylpyrazine-2-carboxamide] | 6.6 nM
CCS(=O)(=O)Nc1ccc(C(=O)Nc2cnn3ccc(N4CCC[C@@H]4c4cccc(F)c4)nc23)cc1 [Example 72, (R)-4-(ethylsulfonamido)-N-(5-(2-(3-fluorophenyl)pyrrolidin-1-yl)pyrazolo[1,5-a]pyrimidin-3-yl)benzamide] | 45.5 nM
CC(C)(CO)C(=O)Nc1cnn2ccc(N3CCC[C@@H]3c3cc(F)ccc3F)nc12 [Example 64, (R)—N-(5-(2-(2,5-difluorophenyl)pyrrolidin-1-yl)pyrazolo[1,5-a]pyrimidin-3-yl)-3-hydroxy-2,2-dimethylpropanamide] | 7.5 nM
COc1ccc(F)cc1[C@H]1CCCN1c1ccn2ncc(NC(=O)N3CCC[C@H](O)C3)c2n1 [Example 91, (S)—N-(5-((R)-2-(5-fluoro-2-methoxyphenyl)pyrrolidin-1-yl)pyrazolo[1,5-a]pyrimidin-3-yl)-3-hydroxypiperidine-1-carboxamide] | 10.2 nM
O=C(Nc1cnn2ccc(N3CC(F)(F)C[C@@H]3c3cccc(F)c3)nc12)N1CC(O)C1 [Example 7, (R)—N-(5-(4,4-difluoro-2-(3-fluorophenyl)pyrrolidin-1-yl)pyrazolo[1,5-a]pyrimidin-3-yl)-3-hydroxyazetidine-1-carboxamide] | 77.5 nM
O=C(Nc1cnn2ccc(N3CCC[C@@H]3c3cc(F)ccc3F)nc12)C(=O)N1CCOCC1 [Example 103, (R)—N-(5-(2-(2,5-difluorophenyl)pyrrolidin-1-yl)pyrazolo[1,5-a]pyrimidin-3-yl)-2-morpholino-2-oxoacetamide] | 82.4 nM
O=C(Nc1cnn2ccc(N3CCC[C@@H]3c3cc(F)ccc3C(F)(F)F)nc12)N1CC[C@H](O)C1 [Example 84, (S)—N-(5-((R)-2-(5-fluoro-2-(trifluoromethyl)phenyl)pyrrolidin-1-yl)pyrazolo[1,5-a]pyrimidin-3-yl)-3-hydroxypyrrolidine-1-carboxamide] | 3.2 nM
CC(C)(C(=O)Nc1cnn2ccc(N3CCC[C@@H]3c3cc(F)ccc3F)nc12)n1cncn1 [Example 56, (R)—N-(5-(2-(2,5-difluorophenyl)pyrrolidin-1-yl)pyrazolo[1,5-a]pyrimidin-3-yl)-2-methyl-2-(1H-1,2,4-triazol-1-yl)propanamide] | 14.4 nM
